Results: ChEMBL document CHEMBL5390239, “A Novel 7H-[1,2,4]Triazolo[3,4-b]thiadiazine-based Cystic Fibrosis Transmembrane Conductance Regulator Potentiator Directed toward Treatment of Cystic Fibrosis” (ACS Med Chem Lett, 2023)
Calls of active or inactive are those of the source. No cut-off for these calls is given here.

Legend:
[1] = tested on: Cystic fibrosis transmembrane conductance regulator (Homo sapiens), P13569 [G551D]; assay: Potentiation of CFTR G551D mutant (unknown origin) expressed in FRT cells assessed as increase in chloride current at 10 uM in presence of VX-770 by voltage clamp electrophysiology recording relative to VX-770 alone; format: cell-based; conditions: filed as activator
Cystic fibrosis transmembrane conductance regulator (Homo sapiens), P13569 [G551D], sequence (P13569 whole entry G551D): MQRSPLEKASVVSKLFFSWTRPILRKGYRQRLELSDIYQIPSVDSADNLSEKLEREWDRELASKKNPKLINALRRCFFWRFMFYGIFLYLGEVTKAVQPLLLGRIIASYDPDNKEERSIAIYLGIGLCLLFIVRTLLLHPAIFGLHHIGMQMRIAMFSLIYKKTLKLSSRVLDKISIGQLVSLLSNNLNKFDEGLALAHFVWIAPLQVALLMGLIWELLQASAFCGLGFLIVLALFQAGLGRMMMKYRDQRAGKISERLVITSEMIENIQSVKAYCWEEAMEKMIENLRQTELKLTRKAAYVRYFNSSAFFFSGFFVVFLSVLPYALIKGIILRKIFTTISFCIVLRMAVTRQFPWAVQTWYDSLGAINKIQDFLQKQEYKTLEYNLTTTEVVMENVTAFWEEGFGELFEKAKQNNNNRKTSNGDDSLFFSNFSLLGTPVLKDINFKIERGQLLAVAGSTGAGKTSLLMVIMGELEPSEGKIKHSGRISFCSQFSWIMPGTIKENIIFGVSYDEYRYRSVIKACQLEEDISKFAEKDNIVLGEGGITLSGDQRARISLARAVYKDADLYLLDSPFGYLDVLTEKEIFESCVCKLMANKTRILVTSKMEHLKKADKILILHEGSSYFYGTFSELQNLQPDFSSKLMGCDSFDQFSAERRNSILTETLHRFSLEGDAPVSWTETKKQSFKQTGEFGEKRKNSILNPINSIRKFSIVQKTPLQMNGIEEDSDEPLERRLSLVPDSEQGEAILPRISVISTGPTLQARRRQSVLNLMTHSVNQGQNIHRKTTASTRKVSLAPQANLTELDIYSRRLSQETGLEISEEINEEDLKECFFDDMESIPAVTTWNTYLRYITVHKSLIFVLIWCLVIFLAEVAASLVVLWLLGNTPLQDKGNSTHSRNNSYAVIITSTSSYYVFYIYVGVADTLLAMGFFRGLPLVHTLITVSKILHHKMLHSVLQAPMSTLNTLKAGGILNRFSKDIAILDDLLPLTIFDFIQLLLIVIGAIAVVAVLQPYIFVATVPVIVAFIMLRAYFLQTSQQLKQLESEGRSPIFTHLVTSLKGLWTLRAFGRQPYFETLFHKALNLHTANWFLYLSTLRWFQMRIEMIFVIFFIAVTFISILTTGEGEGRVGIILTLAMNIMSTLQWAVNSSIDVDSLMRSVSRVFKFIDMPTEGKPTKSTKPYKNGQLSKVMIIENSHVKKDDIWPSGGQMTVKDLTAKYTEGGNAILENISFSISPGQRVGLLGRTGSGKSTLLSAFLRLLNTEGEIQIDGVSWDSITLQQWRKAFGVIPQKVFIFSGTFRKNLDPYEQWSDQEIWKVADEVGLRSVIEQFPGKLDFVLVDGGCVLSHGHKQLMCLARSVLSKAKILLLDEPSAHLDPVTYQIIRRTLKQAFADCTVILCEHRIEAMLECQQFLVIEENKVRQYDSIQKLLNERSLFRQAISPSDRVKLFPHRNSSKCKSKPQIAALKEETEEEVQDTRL

[2] = biological target: Cystic fibrosis transmembrane conductance regulator (Homo sapiens, UniProt P13569, G551D); assay: Potentiation of CFTR G551D mutant (unknown origin) expressed in FRT cells assessed as increase in chloride current in presence of VX-770 by voltage clamp electrophysiology recording; format: cell-based
Cystic fibrosis transmembrane conductance regulator, sequence (P13569 whole entry G551D): as above

[3] = tested on: Cystic fibrosis transmembrane conductance regulator (Homo sapiens), P13569 [N1303K]; assay: Corrector activity at HRP tagged CFTR N1303K mutant (unknown origin) expressed in FRT cells assessed as stabilization of CFTR mutant in plasma membrane by measuring enhanced HRP signal at 5 uM incubated for 24 hrs by ELISA; conditions: filed as activator
Cystic fibrosis transmembrane conductance regulator (Homo sapiens), P13569 [N1303K], sequence (P13569 whole entry N1303K): as the sequence (P13569 whole entry G551D) above, with D551G, N1303K counted along it

| Compound | Activity [1] | EC50 [2] | Activity [3] |
| --- | --- | --- | --- |
| FC(F)(F)C1=Nn2c(nnc2-c2ccc(Cl)cc2Cl)SC1 | 159% | – | – |
| CC1=Nn2c(nnc2-c2ccc(Cl)cc2Cl)SC1 | 137% | – | – |
| COc1ccc(F)c(-c2nnc3n2N=C(C(C)C)CS3)c1 | 237% | – | – |
| CCC1=Nn2c(nnc2-c2ccc(Cl)cc2)SC1 | 149% | – | – |
| COc1cc(Br)c(-c2nnc3n2N=C(C(C)C)CS3)cc1OC | 106% | – | – |
| CC(C)C1=Nn2c(nnc2-c2cc(Cl)ccc2Cl)SC1 | 196% | – | – |
| COc1ccc(Br)c(-c2nnc3n2N=C(C(C)C)CS3)c1 | 232% | – | – |
| CCC1=Nn2c(nnc2-c2cc(OC)c(OC)c(OC)c2)SC1 | 119% | – | – |
| CC(C)(C)C1=Nn2c(nnc2-c2ccc(Cl)cc2Cl)SC1 | 379% | – | – |
| CC(C)C1=Nn2c(nnc2-c2cc(Cl)ccc2Br)SC1 | 267% | – | – |
| CCc1nnc2n1N=C(c1ccc(Cl)c(Cl)c1)CS2 | 103% | – | – |
| CCC1=Nn2c(nnc2-c2cccc(Cl)c2)SC1 | 162% | – | – |
| CCC1=Nn2c(nnc2-c2ccc(Cl)c(Cl)c2)SC1 | 187% | – | – |
| COc1ccc(C2=Nn3c(nnc3-c3ccc(Cl)cc3Cl)SC2)cc1 | 142% | – | – |
| CC(C)C1=Nn2c(nnc2-c2ccc(Cl)cc2Cl)SC1 | 204% | – | – |
| CCC1=Nn2c(nnc2-c2cc(Cl)ccc2Br)SC1 | 118% | – | – |
| CC1=Nn2c(nnc2-c2cc(Cl)ccc2Br)SC1 | 155% | – | – |
| COc1ccc(OC)c(-c2nnc3n2N=C(C(C)C)CS3)c1 | 166% | – | – |
| CCC1=Nn2c(nnc2-c2ccc(Cl)cc2Cl)SC1 | 257% | – | – |
| FC(F)(F)C1=Nn2c(nnc2-c2cc(Cl)ccc2Br)SC1 | 171% | – | – |
| CC(C)(C)C1=Nn2c(nnc2-c2cc(Cl)ccc2Br)SC1 | 267% | – | – |
| CCC1=Nn2c(nnc2-c2cccc(Cl)c2Cl)SC1 | 129% | – | – |
| CCc1nnc2n1N=C(c1ccc(OC)c(OC)c1)CS2 | 204% | ~940 nM | Active |
| CCC1=Nn2c(nnc2-c2ccc(OC)c(OC)c2)SC1 | 107% | – | – |
